{"source": "patent US20140023696A1", "about": "“TREATMENT FOR IDIOPATHIC PULMONARY FIBROSIS” (priority 2012, published 2014)", "origin": "cited, not measured here", "tested_on": "patients with IPF", "conditions": "added to prednisone and azathioprine; 12 months of follow up"}
{"smiles": "CC(=O)N[C@@H](CS)C(=O)O", "note": "[N-acetylcysteine]", "values": [{"measurement": "effect on FVC and DLCO", "result": "slight benefit"}]}
